Where a name gives a salt, the structure may show the parent alone.
Tests used:
recombinant human cGAS = recombinant human cGAS (Homo sapiens (Human), UniProt Q8N884); test: In vitro inhibition assay of cGAS activity (cGAMP production, RapidFire mass spectrometry); assay type: biochemical; details: 10 nM recombinant human cGAS, 60 nM 75-bp dsDNA, ATP, GTP, room temperature 3 hours, read-out: IC50 (μM), In vitro inhibition assay for Compounds 95-348
Outline: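 Full-length His6-tagged human cGAS (10 nM, E. coli-expressed) was incubated 3 h at room temperature with 60 nM 75-bp dsDNA, ATP, 50 μM GTP and compound at pH 7.5 with 5 mM MgCl2. cGAMP formation was measured by RapidFire mass spectrometry, and IC50 was taken from a 4-parameter logistic fit.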

[1] = system: cGAS activity in THP1 cells (IFNb as marker); test: Cellular assay to measure cGAS activity (IFNb production in PMA-differentiated THP1 cells stimulated by RDG-Adenovirus-GFP); assay type: cell-based, human; details: Homo sapiens, THP-1, THP1 cells, PMA differentiated, RDG-Adenovirus-GFP 1000 MOI, IFNb AlphaLISA, overnight incubation; read-out: IC50 (μM), Cellular assay for Compounds 95-348
Outline: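 PMA-differentiated THP1 cells were infected with RDG-Adenovirus-GFP at 1000 MOI for 4 h, then exposed overnight to test compounds. IFNb in the supernatant was quantified by AlphaLISA as a cGAS activity marker, and IC50 was fitted with a 4-parameter logistic equation.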

Chain of recombinant human cGAS (Q8N884 whole entry): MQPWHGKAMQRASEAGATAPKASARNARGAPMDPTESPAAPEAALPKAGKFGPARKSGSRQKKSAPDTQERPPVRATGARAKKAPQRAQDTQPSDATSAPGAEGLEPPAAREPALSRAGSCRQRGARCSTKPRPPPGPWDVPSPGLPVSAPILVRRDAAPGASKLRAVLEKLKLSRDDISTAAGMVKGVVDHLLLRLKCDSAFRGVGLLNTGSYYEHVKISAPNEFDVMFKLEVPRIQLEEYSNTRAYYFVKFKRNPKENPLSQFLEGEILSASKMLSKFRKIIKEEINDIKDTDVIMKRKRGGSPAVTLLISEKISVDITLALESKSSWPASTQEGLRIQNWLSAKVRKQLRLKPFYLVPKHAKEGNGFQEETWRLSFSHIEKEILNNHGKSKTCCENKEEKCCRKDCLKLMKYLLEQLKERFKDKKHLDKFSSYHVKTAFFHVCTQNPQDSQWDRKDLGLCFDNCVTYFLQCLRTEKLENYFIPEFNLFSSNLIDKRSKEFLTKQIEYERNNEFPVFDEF

Question: Which IC50 (recombinant human cGAS) does the source give for `COCCC(=O)NC1CCn2c1c(-c1cn[nH]c1)c1ccc(Cl)c(Cl)c12` (stereo not shown) [Example 240, N-(5,6-Dichloro-9-(1H-pyrazol-4-yl)-2,3-dihydro-1H-pyrrolo[1,2-a]indol-1-yl)-3-methoxypropanamide] here?
Answer: The IC50 was 0.0642 µM.

Question: What about the IC50 [1] of the same compound?
Answer: Its IC50 is > 10 µM.

Question: With `CC(=O)N[C@H]1Cc2c(-c3cn[nH]c3)c3c(NC(=O)C(F)F)cc(Cl)c(Cl)c3n2C1` [Example 244, (S)—N-(2-Acetamido-5,6-dichloro-9-(1H-pyrazol-4-yl)-2,3-dihydro-1H-pyrrolo[1,2-a]indol-8-yl)-2,2-difluoroacetamide] as the compound, how does the IC50 (recombinant human cGAS) read?
Answer: The IC50 was 0.0099 µM.

Question: What about the IC50 [1] of the same compound?
Answer: The IC50 was 0.531 µM.

Question: For `CC(=O)N[C@H]1Cc2c(-c3cn[nH]c3)c3c(OCC#N)cc(Cl)c(Cl)c3n2C1` [Example 245, (S)—N-(5,6-Dichloro-8-(cyanomethoxy)-9-(1H-pyrazol-4-yl)-2,3-dihydro-1H-pyrrolo[1,2-a]indol-2-yl)acetamide], which IC50 (recombinant human cGAS) is on record?
Answer: Its IC50 is 0.0122 µM.

Question: And the IC50 [1]?
Answer: Its IC50 is 0.872 µM.

Question: Which results are given for `CS(=O)(=O)NC1Cc2c(-c3cn[nH]c3)c3ccc(Cl)c(Cl)c3n2C1` (stereo not shown) [Example 246, N-(5,6-Dichloro-9-(1H-pyrazol-4-yl)-2,3-dihydro-1H-pyrrolo[1,2-a]indol-2-yl)methanesulfonamide]?
Answer: IC50 (recombinant human cGAS): 0.0313 µM; IC50 [1]: 9.23 µM

Question: What does the source list for `N#CCOc1cc(Cl)c(Cl)c2[nH]nc(-c3cn[nH]c3)c12` [Example 249, 2-[[6,7-Dichloro-3-(1H-pyrazol-4-yl)-1H-indazol-4-yl]oxy]acetonitrile]?
Answer: IC50 (recombinant human cGAS): 0.0306 µM; IC50 [1]: 2.32 µM

Question: Which IC50 (recombinant human cGAS) does the source give for `OCCCNc1cc(Cl)c(Cl)c2[nH]nc(-c3cn[nH]c3)c12` [Example 250, 3-[[6,7-Dichloro-3-(1H-pyrazol-4-yl)-1H-indazol-4-yl]amino]propan-1-ol] here?
Answer: Its IC50 is 0.0052 µM.

Question: What about the IC50 [1] of the same compound?
Answer: The IC50 was 0.376 µM.

Question: Which results are given for `CCN1CCn2c(c(-c3cn[nH]c3)c3c(NC(=O)C(F)F)cc(Cl)c(Cl)c32)C1=O` [Example 251, N-[6,7-Dichloro-2-ethyl-1-oxo-10-(1H-pyrazol-4-yl)-3,4-dihydropyrazino[1,2-a]indol-9-yl]-2,2-difluoro-acetamide]?
Answer: IC50 (recombinant human cGAS): 0.0265 µM; IC50 [1]: 1.36 µM

Question: How did the IC50 (recombinant human cGAS) turn out when `COCCN1CCn2c(c(-c3cn[nH]c3)c3c(NC(=O)C(F)F)cc(Cl)c(Cl)c32)C1=O` [Example 252, N-[6,7-Dichloro-2-(2-methoxyethyl)-1-oxo-10-(1H-pyrazol-4-yl)-3,4-dihydropyrazino[1,2-a]indol-9-yl]-2,2-difluoro-acetamide] was run?
Answer: Its IC50 is 0.033 µM.

Question: What about the IC50 [1] of the same compound?
Answer: Its IC50 is 0.726 µM.

Question: Which results are given for `CC(=O)N1CCn2c(c(-c3cn[nH]c3)c3c(NCCCO)cc(Cl)c(Cl)c32)C1` [Example 253, 1-[6,7-Dichloro-9-(3-hydroxypropylamino)-10-(1H-pyrazol-4-yl)-3,4-dihydro-1H-pyrazino[1,2-a]indol-2-yl]ethanone]?
Answer: IC50 (recombinant human cGAS): 0.014 µM; IC50 [1]: 0.509 µM

Question: With `CC(=O)N1CCn2c(c(-c3cn[nH]c3)c3c(NCC#N)cc(Cl)c(Cl)c32)C1` [Example 254, 2-[[2-Acetyl-6,7-dichloro-10-(1H-pyrazol-4-yl)-3,4-dihydro-1H-pyrazino[1,2-a]indol-9-yl]amino]acetonitrile] as the compound, how does the IC50 (recombinant human cGAS) read?
Answer: Its IC50 is 0.03 µM.

Question: And the IC50 [1]?
Answer: Its IC50 is 0.938 µM.

Question: Which IC50 (recombinant human cGAS) does the source give for `CCNc1cc(Cl)c(Cl)c2c1c(-c1cn[nH]c1)c1n2CCN(C(C)=O)C1` [Example 255, 1-(6,7-dichloro-9-(ethylamino)-10-(1H-pyrazol-4-yl)-3,4-dihydropyrazino[1,2-a]indol-2(1H)-yl)ethan-1-one hydrochloride] here?
Answer: Its IC50 is 0.0326 µM.

Question: And the IC50 [1]?
Answer: Its IC50 is 2.09 µM.

Question: What does the source list for `CC(=O)N1CCn2c(c(-c3cn[nH]c3)c3c(NC(=O)C(F)(F)F)cc(Cl)c(Cl)c32)C1` [Example 256, N-[2-Acetyl-6,7-dichloro-10-(1H-pyrazol-4-yl)-3,4-dihydro-1H-pyrazino[1,2-a]indol-9-yl]-2,2,2-trifluoro-acetamide]?
Answer: IC50 (recombinant human cGAS): 0.0386 µM; IC50 [1]: 4.8 µM

Question: `O=C(CO)Nc1nnc(-c2[nH]c3c(Cl)c(Cl)ccc3c2-c2cn[nH]c2)o1` [Example 257, N-[5-[6,7-Dichloro-3-(1H-pyrazol-4-yl)-1H-indol-2-yl]-1,3,4-oxadiazol-2-yl]-2-hydroxy-acetamide] was tested. Which IC50 (recombinant human cGAS) did it give?
Answer: The IC50 was 0.0235 µM.

Question: And the IC50 [1]?
Answer: Its IC50 is > 10 µM.

Question: Which IC50 (recombinant human cGAS) does the source give for `O=C(O)[C@@H]1CCCN1C(=O)c1[nH]c2c(Cl)c(Cl)ccc2c1-c1cn[nH]c1` [Example 258, (2 S)-1-[6,7-Dichloro-3-(1H-pyrazol-4-yl)-1H-indole-2-carbonyl]pyrrolidine-2-carb oxylic acid] here?
Answer: Its IC50 is 0.0757 µM.

Question: And the IC50 [1]?
Answer: Its IC50 is > 10 µM.

Question: With `CC(=O)N1CCn2c(c(-c3cn[nH]c3)c3c(NC(=O)C(F)F)cc(Cl)c(Cl)c32)C1` [Example 263, N-[2-Acetyl-6,7-dichloro-10-(1H-pyrazol-4-yl)-3,4-dihydro-1H-pyrazino[1,2-a]indol-9-yl]-2,2-difluoro-acetamide] as the compound, how does the IC50 (recombinant human cGAS) read?
Answer: Its IC50 is 0.0173 µM.

Question: And the IC50 [1]?
Answer: Its IC50 is 0.509 µM.

Question: Which IC50 (recombinant human cGAS) does the source give for `O=C(Cc1ccn[nH]1)N1CCn2c(c(-c3cn[nH]c3)c3ccc(Cl)c(Cl)c32)C1` [Example 266, 1-[6,7-Dichloro-10-(1H-pyrazol-4-yl)-3,4-dihydro-1H-pyrazino[1,2-a]indol-2-yl]-2-(1H-pyrazol-5-yl)ethanone] here?
Answer: Its IC50 is 0.0401 µM.

Question: What about the IC50 [1] of the same compound?
Answer: The IC50 was 9.93 µM.

Question: `O=C(Cc1cnccn1)N1CCn2c(c(-c3cn[nH]c3)c3ccc(Cl)c(Cl)c32)C1` [Example 267, 1-[6,7-Dichloro-10-(1H-pyrazol-4-yl)-3,4-dihydro-1H-pyrazino[1,2-a]indol-2-yl]-2-pyrazin-2-yl-ethanone] was tested. Which IC50 (recombinant human cGAS) did it give?
Answer: The IC50 was 0.0399 µM.

Question: What about the IC50 [1] of the same compound?
Answer: The IC50 was 6.27 µM.

Question: How did the IC50 (recombinant human cGAS) turn out when `CC(=O)N1CCn2c(c(-c3cn[nH]c3)c3c(OCC(N)=O)cc(Cl)c(Cl)c32)C1` [Example 268, 2-[[2-Acetyl-6,7-dichloro-10-(1H-pyrazol-4-yl)-3,4-dihydro-1H-pyrazino[1,2-a]indol-9-yl]oxy]acetamide] was run?
Answer: The IC50 was 0.0385 µM.

Question: What about the IC50 [1] of the same compound?
Answer: The IC50 was 5.87 µM.

Question: Which IC50 (recombinant human cGAS) does the source give for `NC(=O)COc1cc(Cl)c(Cl)c2c1c(-c1cn[nH]c1)c1n2CCN(C(=O)CO)C1` [Example 269, 2-[[6,7-Dichloro-2-(2-hydroxyacetyl)-10-(1H-pyrazol-4-yl)-3,4-dihydro-1H-pyrazino[1,2-a]indol-9-yl]oxy]acetamide] here?
Answer: Its IC50 is 0.0306 µM.

Question: What about the IC50 [1] of the same compound?
Answer: The IC50 was > 10 µM.

Question: `O=C(Nc1cc(Cl)c(Cl)c2c1c(-c1cn[nH]c1)c1n2CCN(C(=O)CO)C1)C(F)F` [Example 272, N-[6,7-Dichloro-2-(2-hydroxyacetyl)-10-(1H-pyrazol-4-yl)-3,4-dihydro-1H-pyrazino[1,2-a]indol-9-yl]-2,2-difluoro-acetamide] was tested. Which IC50 (recombinant human cGAS) did it give?
Answer: The IC50 was 0.0202 µM.

Question: And the IC50 [1]?
Answer: Its IC50 is 0.412 µM.

Question: What does the source list for `O=C(Nc1cc(Cl)c(Cl)c2c1c(-c1cn[nH]c1)c1n2CCN(C(=O)[C@@H]2COCCO2)C1)C(F)F` [Example 273, N-[6,7-Dichloro-2-[(2 S)-1,4-dioxane-2-carbonyl]-10-(1H-pyrazol-4-yl)-3,4-dihydro-1H-pyrazino[1,2-a]indol-9-yl]-2,2-difluoro-acetamide]?
Answer: IC50 (recombinant human cGAS): 0.0206 µM; IC50 [1]: 0.56 µM

Question: Which results are given for `O=C(Nc1cc(Cl)c(Cl)c2c1c(-c1cn[nH]c1)c1n2CCN(C(=O)CN2CCOC2=O)C1)C(F)F` [Example 274, N-[6,7-Dichloro-2-[2-(2-oxooxazolidin-3-yl)acetyl]-10-(1H-pyrazol-4-yl)-3,4-dihydro-1H-pyrazino[1,2-a]indol-9-yl]-2,2-difluoro-acetamide]?
Answer: IC50 (recombinant human cGAS): 0.023 µM; IC50 [1]: 3.55 µM

Question: Which results are given for `CN(C)C(=O)CCC(=O)N1CCn2c(c(-c3cn[nH]c3)c3c(NC(=O)C(F)F)cc(Cl)c(Cl)c32)C1` [Example 275, 4-[6,7-Dichloro-9-[(2,2-difluoroacetyl)amino]-10-(1H-pyrazol-4-yl)-3,4-dihydro-1H-pyrazino[1,2-a]indol-2-yl]-N,N-dimethyl-4-oxo-butanamide]?
Answer: IC50 (recombinant human cGAS): 0.0284 µM; IC50 [1]: 4.01 µM

Question: Which results are given for `O=C1CC(CC(=O)N2CCn3c(c(-c4cn[nH]c4)c4c(NC(=O)C(F)F)cc(Cl)c(Cl)c43)C2)CCN1` (stereo not shown) [Example 276, N-[6,7-Dichloro-2-[2-(2-oxo-4-piperidyl)acetyl]-10-(1H-pyrazol-4-yl)-3,4-dihydro-1H-pyrazino[1,2-a]indol-9-yl]-2,2-difluoro-acetamide]?
Answer: IC50 (recombinant human cGAS): 0.0405 µM; IC50 [1]: > 10 µM

Question: `O=C(Nc1cc(Cl)c(Cl)c2c1c(-c1cn[nH]c1)c1n2CCN(C(=O)Cc2cnccn2)C1)C(F)F` [Example 277, N-[6,7-Dichloro-2-(2-pyrazin-2-ylacetyl)-10-(1H-pyrazol-4-yl)-3,4-dihydro-1H-pyrazino[1,2-a]indol-9-yl]-2,2-difluoro-acetamide] was tested. Which IC50 (recombinant human cGAS) did it give?
Answer: Its IC50 is 0.0445 µM.

Question: And the IC50 [1]?
Answer: Its IC50 is 1.58 µM.

Question: What does the source list for `OC1Cc2c(-c3cn[nH]c3)c3ccc(Cl)c(Cl)c3n2C1` (stereo not shown) [Example 278, 5,6-Dichloro-9-(1H-pyrazol-4-yl)-2,3-dihydro-1H-pyrrolo[1,2-a]indol-2-ol]?
Answer: IC50 (recombinant human cGAS): 0.0391 µM; IC50 [1]: 2.19 µM

Question: Which results are given for `COCC(=O)N1CCn2c(c(-c3cn[nH]c3)c3c(OCC#N)cc(Cl)c(Cl)c32)C1` [Example 279, 2-((6,7-Dichloro-2-(2-methoxyacetyl)-10-(1H-pyrazol-4-yl)-1,2,3,4-tetrahydropyrazino[1,2-a]indol-9-yl)oxy)acetonitrile]?
Answer: IC50 (recombinant human cGAS): 0.0072 µM; IC50 [1]: 0.74 µM

Question: How did the IC50 (recombinant human cGAS) turn out when `CC(=O)N1CCn2c(c(-c3cn[nH]c3)c3c(OCC#N)cc(Cl)c(Cl)c32)C1` [Example 280, 2-((2-Acetyl-6,7-dichloro-10-(1H-pyrazol-4-yl)-1,2,3,4-tetrahydropyrazino[1,2-a]indol-9-yl)oxy)acetonitrile] was run?
Answer: The IC50 was 0.0087 µM.

Question: And the IC50 [1]?
Answer: Its IC50 is 0.872 µM.

Question: `CN1CCO[C@@H](C(=O)N2CCn3c(c(-c4cn[nH]c4)c4c(OCC#N)cc(Cl)c(Cl)c43)C2)C1` [Example 281, (R)-2-((6,7-Dichloro-2-(4-methylmorpholine-2-carbonyl)-10-(1H-pyrazol-4-yl)-1,2,3,4-tetrahydropyrazino[1,2-a]indol-9-yl)oxy)acetonitrile] was tested. Which IC50 (recombinant human cGAS) did it give?
Answer: Its IC50 is 0.0089 µM.

Question: What about the IC50 [1] of the same compound?
Answer: The IC50 was 1 µM.

From US20230391786A1, “cGAS INHIBITORS” (Eli Lilly and Company, priority 2022, published 2023)
